From PubChem BioAssay AID248 (DTP/NCI, 2004)
Several values for one entry are separate records, joined by “and”; a condition that tells them apart may be missing. Equal values may be shown once. Inconclusive results and toxic doses are left out. Peptide text beside a SMILES is read from it. * marks the point of attachment. Boc = CC(C)(C)OC(=O)*; Bn = c1ccc(C*)cc1

Test system: L1210 leukemia ip in BDF1 mice, survival T/C
Experiment: NCI In Vivo Anticancer Drug Screen. Data for tumor model L1210 Leukemia (intraperitoneal) in B6D2F1 (BDF1) mice
Conditions: endpoint: mean survival time, higher = longer survival
How it was run: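 Transplanted-tumor mice were given test agent; controls received vehicle only. Survival readings from the two groups were divided (treated over control).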

[1] = dose: 100.0 mg/kg/injection, schedule: Q01DX001 (ip), vehicle: Klucel (hydroxypropylcellulose) (HPC)
[2] = dose: 200.0 mg/kg/injection, schedule: Q01DX001 (ip), vehicle: Klucel (hydroxypropylcellulose) (HPC)
[3] = dose: 100.0 mg/kg/injection, schedule: Q01DX009 (ip), vehicle: saline with Tween-80
[4] = dose: 200.0 mg/kg/injection, schedule: Q01DX009 (ip), vehicle: saline with Tween-80
[5] = dose: 100.0 mg/kg/injection, schedule: Q01DX001 (ip), vehicle: saline
[6] = dose: 200.0 mg/kg/injection, schedule: Q01DX001 (ip), vehicle: saline
[7] = dose: 400.0 mg/kg/injection, schedule: Q01DX001 (ip), vehicle: saline
[8] = dose: 100.0 mg/kg/injection, schedule: Q04DX002 (ip), vehicle: Klucel (hydroxypropylcellulose) (HPC)
[9] = dose: 200.0 mg/kg/injection, schedule: Q04DX002 (ip), vehicle: Klucel (hydroxypropylcellulose) (HPC)

`OC(c1ccccc1)C1(N2CCCCC2)CCCCC1` (centres undefined) was tested, and the T/C [1] was 94 % of control, the T/C [2] was 100 % of control and the T/C (dose: 400.0 mg/kg/injection, schedule: Q01DX001 (ip), vehicle: Klucel (hydroxypropylcellulose) (HPC)) was 96 % of control.
`O=S1(=O)CC(Br)C1` was tested, and the T/C (dose: 12.5 mg/kg/injection, schedule: Q04DX002 (ip), vehicle: Klucel (hydroxypropylcellulose) (HPC)) was 86 % of control, the T/C (dose: 25.0 mg/kg/injection, schedule: Q01DX009 (ip), vehicle: Klucel (hydroxypropylcellulose) (HPC)) was 96 % of control and the T/C (dose: 25.0 mg/kg/injection, schedule: Q04DX002 (ip), vehicle: Klucel (hydroxypropylcellulose) (HPC)) was 93 % of control. The T/C (dose: 50.0 mg/kg/injection, schedule: Q01DX009 (ip), vehicle: Klucel (hydroxypropylcellulose) (HPC)) was 96 % of control and the T/C (dose: 50.0 mg/kg/injection, schedule: Q04DX002 (ip), vehicle: Klucel (hydroxypropylcellulose) (HPC)) was 109 % of control.
`CC(=O)c1cc2ccccc2oc1=O` was tested, and the T/C (dose: 100.0 mg/kg/injection, schedule: Q01DX009 (ip), vehicle: gum acacia) was 117 % of control, the T/C (dose: 200.0 mg/kg/injection, schedule: Q01DX009 (ip), vehicle: gum acacia) was 108 % of control and the T/C (dose: 400.0 mg/kg/injection, schedule: Q01DX009 (ip), vehicle: gum acacia) was 107 % of control.
For `COC(=O)CNC(=O)C(Cc1ccc(OCc2ccccc2)cc1)NC(=O)C(CO)NC(=O)OC(C)(C)C` (stereo not drawn) (Boc-Ser-Tyr(Bn)-Gly-OMe; configuration not given here), the T/C [3] was 102 % of control, the T/C [4] was 98 % of control and the T/C (dose: 400.0 mg/kg/injection, schedule: Q01DX009 (ip), vehicle: saline with Tween-80) was 88 % of control.
In the case of `C=C(Br)S(=O)(=O)C(=C)Br`, the T/C (dose: 6.25 mg/kg/injection, schedule: Q04DX002 (ip), vehicle: alcohol) is reported as 101 % of control, the T/C (dose: 12.5 mg/kg/injection, schedule: Q04DX002 (ip), vehicle: alcohol) is reported as 111 % of control and the T/C (dose: 25.0 mg/kg/injection, schedule: Q04DX002 (ip), vehicle: alcohol) is reported as 101 % of control.
In the case of `COc1cc2c(cc1OC)-c1cc3cc(OC)c(OC)cc3c(CCC(=O)O)[n+]1CC2`, the T/C (dose: 20.0 mg/kg/injection, schedule: Q04DX002 (ip), vehicle: Klucel (hydroxypropylcellulose) (HPC)) is reported as 95 % of control, the T/C (dose: 40.0 mg/kg/injection, schedule: Q04DX002 (ip), vehicle: Klucel (hydroxypropylcellulose) (HPC)) is reported as 88 % of control and the T/C (dose: 80.0 mg/kg/injection, schedule: Q04DX002 (ip), vehicle: Klucel (hydroxypropylcellulose) (HPC)) is reported as 109 % of control.
In the case of `NNc1ncnc2c1ccn2C1OC(CO)C(O)C1O` (centres undefined), the T/C (dose: 5.0 mg/kg/injection, schedule: Q01DX001 (ip), vehicle: saline) is reported as 110 % of control, the T/C (dose: 10.0 mg/kg/injection, schedule: Q01DX001 (ip), vehicle: saline) is reported as 110 % of control and the T/C (dose: 20.0 mg/kg/injection, schedule: Q01DX001 (ip), vehicle: saline) is reported as 121 % of control. The T/C (dose: 35.0 mg/kg/injection, schedule: Q01DX001 (ip), vehicle: saline) was 108 % of control, the T/C (dose: 40.0 mg/kg/injection, schedule: Q01DX001 (ip), vehicle: saline) was 115 % of control and the T/C (dose: 53.0 mg/kg/injection, schedule: Q01DX001 (ip), vehicle: saline) was 114 % of control. For the same molecule, the T/C (dose: 80.0 mg/kg/injection, schedule: Q01DX001 (ip), vehicle: saline) was 114 % of control and the T/C [5] was 119 % of control.
With `CCOc1ccccc1/C=N\NC(=O)c1cccc2ccccc12` the T/C [5] was 95 % of control, the T/C [6] was 95 % of control and the T/C [7] was 90 % of control.
For `c1nc2c([nH]1)CCCC2`, the T/C (dose: 25.0 mg/kg/injection, schedule: Q01DX001 (ip), vehicle: carboxymethylcellulose (CMC)) was 106 % of control, the T/C (dose: 25.0 mg/kg/injection, schedule: Q01DX009 (ip), vehicle: carboxymethylcellulose (CMC)) was 103 % of control and 91 % of control and the T/C (dose: 25.0 mg/kg/injection, schedule: Q04DX002 (ip), vehicle: carboxymethylcellulose (CMC)) was 94 % of control and 102 % of control. For the same molecule, the T/C (dose: 25.0 mg/kg/injection, schedule: Q04DX003 (ip), vehicle: carboxymethylcellulose (CMC)) was 95 % of control, the T/C (dose: 50.0 mg/kg/injection, schedule: Q01DX001 (ip), vehicle: carboxymethylcellulose (CMC)) was 102 % of control and the T/C (dose: 50.0 mg/kg/injection, schedule: Q01DX009 (ip), vehicle: carboxymethylcellulose (CMC)) was 94 % of control and 92 % of control. For the same molecule, the T/C (dose: 50.0 mg/kg/injection, schedule: Q04DX002 (ip), vehicle: carboxymethylcellulose (CMC)) was 94 % of control and 104 % of control, the T/C (dose: 50.0 mg/kg/injection, schedule: Q04DX003 (ip), vehicle: carboxymethylcellulose (CMC)) was 105 % of control and the T/C (dose: 100.0 mg/kg/injection, schedule: Q04DX003 (ip), vehicle: carboxymethylcellulose (CMC)) was 92 % of control.
`C1SCSCS1` was tested, and the T/C [8] was 104 % of control, the T/C [9] was 96 % of control and the T/C (dose: 400.0 mg/kg/injection, schedule: Q04DX002 (ip), vehicle: Klucel (hydroxypropylcellulose) (HPC)) was 93 % of control.
For `CC(=O)[C@H]1C[C@@H](CC(=O)O)C1(C)C`, the T/C [5] was 106 % of control, the T/C (dose: 100.0 mg/kg/injection, schedule: Q04DX003 (ip), vehicle: saline) was 96 % of control and the T/C [6] was 103 % of control. The T/C (dose: 200.0 mg/kg/injection, schedule: Q04DX003 (ip), vehicle: saline) was 88 % of control, the T/C [7] was 97 % of control and the T/C (dose: 400.0 mg/kg/injection, schedule: Q04DX003 (ip), vehicle: saline) was 96 % of control.
With `O=S(=O)(CCN1CCCCC1)c1ccc(F)cc1` the T/C [5] was 100 % of control and the T/C [6] was 100 % of control.
In the case of `CCCCNC(C)(C)C(=O)c1ccco1`, the T/C (dose: 50.0 mg/kg/injection, schedule: Q01DX009 (ip), vehicle: saline with Tween-80) is reported as 100 % of control, the T/C [3] is reported as 97 % of control and the T/C [4] is reported as 111 % of control.
In the case of `O=NN(CCCl)C(=O)Nc1cccc(C(=O)O)c1`, the T/C (dose: 0.62 mg/kg/injection, schedule: Q01DX001 (ip), vehicle: carboxymethylcellulose (CMC)) is reported as 117 % of control, the T/C (dose: 5.0 mg/kg/injection, schedule: Q01DX001 (ip), vehicle: carboxymethylcellulose (CMC)) is reported as 123 % of control and the T/C (dose: 12.0 mg/kg/injection, schedule: Q01DX001 (ip), vehicle: saline) is reported as 121 % of control.
`CCCC(CCC)(C(N)=O)C(=O)O` was tested, and the T/C (dose: 100.0 mg/kg/injection, schedule: Q01DX009 (ip), vehicle: saline) was 102 % of control, the T/C (dose: 200.0 mg/kg/injection, schedule: Q01DX009 (ip), vehicle: saline) was 100 % of control and the T/C (dose: 400.0 mg/kg/injection, schedule: Q01DX009 (ip), vehicle: saline) was 92 % of control.
`Cc1cccc(C(O)C(=O)O)c1` (centres undefined) was tested, and the T/C (dose: 75.0 mg/kg/injection, schedule: Q01DX001 (ip), vehicle: acetone) was 94 % of control and the T/C (dose: 150.0 mg/kg/injection, schedule: Q01DX001 (ip), vehicle: acetone) was 92 % of control.
With `CSCC(C)(C)NC(=O)NCCCl` the T/C [8] was 89 % of control and the T/C [9] was 89 % of control.
`CN(N=O)C(=O)Nc1c[nH]c(=O)[nH]c1=O` was tested, and the T/C (dose: 10.0 mg/kg/injection, schedule: Q01DX Z (ip), vehicle: carboxymethylcellulose (CMC)) was 172 % of control, the T/C (dose: 20.0 mg/kg/injection, schedule: Q01DX Z (ip), vehicle: carboxymethylcellulose (CMC)) was 207 % of control and the T/C (dose: 27.0 mg/kg/injection, schedule: Q01DX Z (ip), vehicle: saline) was 151 % of control. The T/C (dose: 40.0 mg/kg/injection, schedule: Q01DX Z (ip), vehicle: carboxymethylcellulose (CMC)) was 239 % of control, the T/C (dose: 40.5 mg/kg/injection, schedule: Q01DX Z (ip), vehicle: saline) was 159 % of control and the T/C (dose: 50.0 mg/kg/injection, schedule: Q01DX Z (ip), vehicle: carboxymethylcellulose (CMC)) was 165 % of control and 206 % of control. The T/C (dose: 60.0 mg/kg/injection, schedule: Q01DX Z (ip), vehicle: carboxymethylcellulose (CMC)) was 183 % of control, the T/C (dose: 60.7 mg/kg/injection, schedule: Q01DX Z (ip), vehicle: saline) was 162 % of control and the T/C (dose: 80.0 mg/kg/injection, schedule: Q01DX Z (ip), vehicle: carboxymethylcellulose (CMC)) was 101 % of control. For the same molecule, the T/C (dose: 91.1 mg/kg/injection, schedule: Q01DX Z (ip), vehicle: saline) was 98 % of control, the T/C (dose: 240.0 mg/kg/injection, schedule: Q01DX001 (ip), vehicle: saline) was 185 % of control and the T/C (dose: 480.0 mg/kg/injection, schedule: Q01DX001 (ip), vehicle: saline) was 188 % of control. The T/C (dose: 960.0 mg/kg/injection, schedule: Q01DX001 (ip), vehicle: saline) was 173 % of control.
With `CSCC1OC(n2nnc3c(N)ncnc32)C(O)C1O` (centres undefined) the T/C [1] was 100 % of control and the T/C [2] was 103 % of control.
